Source: ChEMBL document CHEMBL1811803, “Preparation of allosamidin and demethylallosamidin photoaffinity probes and analysis of allosamidin-binding proteins in asthmatic mice” (Bioorg Med Chem, 2011)
Calls of active or inactive are those of the source. No cut-off for these calls is given here.

Assays:
[1] = target: Chitinase-like protein 3 (Mus musculus) (UniProt O35744); experiment: Binding affinity to Ym1 in IL-13-induced asthmatic A/J mouse BAL fluid after 1 hrs by photoaffinity labeling study
[2] = target: Chitinase-like protein 3 (Mus musculus) (UniProt O35744); experiment: Binding affinity to recombinant His-tagged mouse Ym1 expressed in Escherichia coli after 1 hrs by photoaffinity labeling study
[3] = Inhibition of Trichoderma chitinase T1 using [4MU-(GlcNAc)3] as substrate
[4] = system: Alpha-1-antiproteinase (Mus musculus); experiment: Binding affinity to alpha-1 antitrypsin in IL-13-induced asthmatic A/J mouse BAL fluid after 1 hrs by photoaffinity labeling study
[5] = Stability of the compound in 0.05 M HCl for 30 mins at room temperature; type: physicochemical; conditions: buffer, 0.5 h
[6] = Stability of the compound in 0.05 M NaOH for 30 mins at room temperature; type: physicochemical; conditions: 0.5 h

Chain of Chitinase-like protein 3 (Mus musculus) (O35744 whole entry): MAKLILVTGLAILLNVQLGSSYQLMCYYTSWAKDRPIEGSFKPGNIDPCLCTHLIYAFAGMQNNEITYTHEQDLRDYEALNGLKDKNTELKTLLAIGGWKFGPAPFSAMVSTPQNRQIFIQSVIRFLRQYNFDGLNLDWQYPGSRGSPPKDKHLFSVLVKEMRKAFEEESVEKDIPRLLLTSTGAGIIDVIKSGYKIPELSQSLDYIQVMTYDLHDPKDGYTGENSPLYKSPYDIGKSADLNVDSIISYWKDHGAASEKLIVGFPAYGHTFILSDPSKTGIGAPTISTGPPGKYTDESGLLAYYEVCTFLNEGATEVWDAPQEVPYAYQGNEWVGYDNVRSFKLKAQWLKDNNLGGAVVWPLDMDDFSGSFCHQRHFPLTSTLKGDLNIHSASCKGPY

Row | SMILES | IC50 [3] [µM] | also measured
1 | CNC1=N[C@@H]2[C@@H](O)[C@H](O[C@@H]3O[C@H](CO)[C@@H](O[C@@H]4O[C@H](CO)[C@@H](O)[C@@H](O)[C@H]4N)[C@@H](O)[C@H]3NC(C)=O)[C@@H](CO)[C@@H]2O1 | 82.9 | –
2 | CNC1=N[C@@H]2[C@@H](O)[C@H](O[C@@H]3O[C@H](CO)[C@@H](O[C@@H]4O[C@H](CO)[C@@H](O)[C@@H](O)[C@H]4NC(C)=O)[C@@H](O)[C@H]3NC(=O)CCSSCCNC(=O)C(CCCCNC(=O)CCCCC3SCC4NC(=O)NC43)NC(=O)c3ccc(N=[NH+][NH-])cc3)[C@@H](CO)[C@@H]2O1 (some centres not stated) | 155 | –
3 | CC(=O)N[C@H]1[C@H](O[C@H]2[C@@H](O)[C@@H](NC(=O)CCSSCCNC(=O)CCCCC3SCC4NC(=O)NC43)[C@H](O[C@H]3[C@H](O)[C@H]4N=C(N(C)C)O[C@H]4[C@@H]3CO)O[C@@H]2CO)O[C@H](CO)[C@@H](O)[C@H]1O (some centres not stated) | 50.3 | –
4 | CNC1=N[C@@H]2[C@@H](O)[C@H](O[C@@H]3O[C@H](CO)[C@@H](O[C@@H]4O[C@H](CO)[C@@H](O)[C@@H](O)[C@H]4NC(C)=O)[C@@H](O)[C@H]3NC(=O)CCSSCCNC(=O)CCCCC3SCC4NC(=O)NC43)[C@@H](CO)[C@@H]2O1 (some centres not stated) | 49.7 | –
5 | CC(=O)N[C@H]1[C@H](O[C@H]2[C@@H](O)[C@@H](N)[C@H](O[C@H]3[C@H](O)[C@H]4N=C(N(C)C)O[C@H]4[C@@H]3CO)O[C@@H]2CO)O[C@H](CO)[C@@H](O)[C@H]1O | 69.3 | –
6 | CNC1=N[C@@H]2[C@@H](O)[C@H](O[C@@H]3O[C@H](CO)[C@@H](O[C@@H]4O[C@H](CO)[C@@H](O)[C@@H](O)[C@H]4NC(C)=O)[C@@H](O)[C@H]3N)[C@@H](CO)[C@@H]2O1 | 308 | –
7 | CC(=O)N[C@H]1[C@H](O[C@H]2[C@@H](O)[C@@H](NC(=O)CCSSCCNC(=O)C(CCCCNC(=O)CCCCC3SCC4NC(=O)NC43)NC(=O)c3ccc(N=[NH+][NH-])cc3)[C@H](O[C@H]3[C@H](O)[C@H]4N=C(N(C)C)O[C@H]4[C@@H]3CO)O[C@@H]2CO)O[C@H](CO)[C@@H](O)[C@H]1O (some centres not stated) | 125 | –

Stronger by IC50 [3], values ahead:

Row | IC50 [3] [µM] | SMILES | also measured
8 | 34.3 | CC(=O)N[C@H]1[C@H](O[C@H]2[C@H](O)[C@H]3N=C(N(C)C)O[C@H]3[C@@H]2CO)O[C@H](CO)[C@@H](O[C@@H]2O[C@H](CO)[C@@H](O)[C@@H](O)[C@H]2N)[C@H]1O | –
9 | 10.7 | CC(=O)N[C@H]1[C@H](O[C@H]2[C@H](O)[C@H]3N=C(N(C)C)O[C@H]3[C@@H]2CO)O[C@H](CO)[C@@H](O[C@@H]2O[C@H](CO)[C@@H](O)[C@@H](O)[C@H]2NC(=O)CCSSCCNC(=O)C(CCCCNC(=O)CCCCC2SCC3NC(=O)NC32)NC(=O)c2ccc(N=[NH+][NH-])cc2)[C@H]1O (some centres not stated) | Activity [1]: Active; Activity [2]: Active; Activity [4]: Active
10 | 10.3 | CNC1=N[C@@H]2[C@@H](O)[C@H](O[C@@H]3O[C@H](CO)[C@@H](O[C@@H]4O[C@H](CO)[C@@H](O)[C@@H](O)[C@H]4NC(C)=O)[C@@H](O)[C@H]3NC(C)=O)[C@@H](CO)[C@@H]2O1 [DEMETHYLALLOSAMIDIN] | –
11 | 7.9 | CNC1=N[C@@H]2[C@@H](O)[C@H](O[C@@H]3O[C@H](CO)[C@@H](O[C@@H]4O[C@H](CO)[C@@H](O)[C@@H](O)[C@H]4NC(=O)CCSSCCNC(=O)CCCCC4SCC5NC(=O)NC54)[C@@H](O)[C@H]3NC(C)=O)[C@@H](CO)[C@@H]2O1 (some centres not stated) | –
12 | 7.7 | CNC1=N[C@@H]2[C@@H](O)[C@H](O[C@@H]3O[C@H](CO)[C@@H](O[C@@H]4O[C@H](CO)[C@@H](O)[C@@H](O)[C@H]4NC(=O)CCSSCCNC(=O)C(CCCCNC(=O)CCCCC4SCC5NC(=O)NC54)NC(=O)c4ccc(N=[NH+][NH-])cc4)[C@@H](O)[C@H]3NC(C)=O)[C@@H](CO)[C@@H]2O1 (some centres not stated) | Activity [1]: Active; Activity [2]: Active; Activity [4]: Active
13 | 5.4 | CC(=O)N[C@H]1[C@H](O[C@H]2[C@@H](O)[C@@H](NC(C)=O)[C@H](O[C@H]3[C@H](O)[C@H]4N=C(N(C)C)O[C@H]4[C@@H]3CO)O[C@@H]2CO)O[C@H](CO)[C@@H](O)[C@H]1O [ALLOSAMIDIN] | –
14 | 3.6 | CC(=O)N[C@H]1[C@H](O[C@H]2[C@H](O)[C@H]3N=C(N(C)C)O[C@H]3[C@@H]2CO)O[C@H](CO)[C@@H](O[C@@H]2O[C@H](CO)[C@@H](O)[C@@H](O)[C@H]2NC(=O)CCSSCCNC(=O)CCCCC2SCC3NC(=O)NC32)[C@H]1O (some centres not stated) | Stability [5]: Stable; Stability [6]: Stable
